pEC50: −log10 of the molar value. Activity calls are given as the source filed them.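 How the source made its calls: active means fitted concentration giving half of the maximal binding block below 66 µM; inactive means the rest.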
Biological target: anti-desmoglein 3 scFv antibody binding to human desmoglein 3 (DSG3)
Test: blockers of pemphigus antibody–desmoglein 3 interaction – biochemical, DSG3-coupled beads, scFv-GFP, flow cytometry, Cherry Pick 1, dose response (AID 602251);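 on binding response, lower = inhibition: 100% = DMSO vehicle binding and 0% = soluble DSG3 blocking control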
Conditions: for binding response, lower = inhibition: at 66.1 µM (top of the series)

Row | SMILES | binding response, lower = inhibition | pEC50
1 | CN(C(=O)COC(=O)c1ccc(-c2ccc(O)cc2)cc1)C1CCS(=O)(=O)C1 (stereo unspecified) | inactive | –
2 | O=C(Nc1cccc2ccccc12)N1CCN(c2ccccc2)CC1 | inactive | –
3 | O=C(CSc1ccsc1[N+](=O)[O-])Nc1cc(F)ccc1F | inactive | –
4 | CCOC(=O)N1CCC(NC(=O)c2cc3c(-c4ccccc4F)nn(C)c3s2)CC1 | inactive | –
5 | O=C(NCc1ccccc1)c1ccc(C(=O)NCc2ccccc2)cc1 | inactive | –
6 | Cc1cc(C)cc(N(CC(=O)NC2CCC(C)CC2)S(=O)(=O)c2c(C)noc2C)c1 (stereo unspecified) | inactive | –
7 | COC(=O)c1cc(/C=C/c2ccccc2)on1 | inactive | –
8 | C#CCn1c(=NC(=O)c2sc3ccccc3c2Cl)sc2cc(S(N)(=O)=O)ccc21 | inactive | –
9 | COc1cc(OC)cc(C(=O)OCc2cc3ccccc3[nH]c2=O)c1 | inactive | –
10 | Cc1cc(NC(=O)c2cc(-c3ccccn3)nc3ccc(Br)cc23)no1 | inactive | –
11 | COc1ccc(C(C(=O)NC2CCCCC2)N(CC2CCCO2)C(=O)C2COc3ccccc3O2)cc1OC (stereo unspecified) | inactive | –
12 | CN1C(=CC=C2C=C(I)C(=O)C(I)=C2)C(C)(C)c2ccccc21 | – | 4.80
13 | O=C(O)c1cccc2c1NC(C(=O)O)C1CC(Sc3ccccc3[N+](=O)[O-])C(Cl)C21 (stereo unspecified) | – | 4.54
14 | CN1C(=O)/C(=C/c2cccn2-c2ccc3ccccc3c2)C(=O)NC1=S | inactive | –
15 | CC1CCN(S(=O)(=O)c2ccc3c(c2)c(=O)c(C(=O)NCc2cccs2)cn3C)CC1 | – | 4.25
16 | C=CCNC(=O)c1c(N)n(-c2cccc(S(N)(=O)=O)c2)c2nc3ccccc3nc12 | – | 4.23
17 | COc1ccccc1-n1cnc2c(c1=O)c1nc3ccccc3nc1n2-c1ccc(C)c(C)c1 | inactive | –
18 | C=CCSc1nc(N)c(C(=O)Nc2ccccc2)cc1C#N | inactive | –
19 | COc1cc(/C=C2/C(=N)N3OC(C)=CC3=NC2=O)ccc1OC(=O)c1ccco1 | inactive | –
20 | O=C(Nc1ccc(-c2cn3c(n2)SCC3)cc1)c1ccc2c(c1)OCO2 | inactive | –
21 | Cc1c(C(=O)Nc2ccc(OCc3ccccc3)cc2)cccc1[N+](=O)[O-] | inactive | –

From PubChem BioAssay AID602251 (NMMLSC, 2012)
